This is an account of results in patent US11345681B1, “Inhibitors of fibroblast growth factor receptor kinases” (Kinnate Biopharma Inc., priority 2020, dated 2022).

In the assay the target is Wild type FGFR2 (Homo sapiens (Human), UniProt P21802). The assay can be described thus: FGFR2 kinase assay (fluorescence-based microfluidic mobility shift assay). The class given is biochemical. As to conditions: wild type FGFR2 0.06 nM, 100 μM ATP, 80 minutes at room temperature; class symbols.
Chain of Wild type FGFR2 (P21802 22-821): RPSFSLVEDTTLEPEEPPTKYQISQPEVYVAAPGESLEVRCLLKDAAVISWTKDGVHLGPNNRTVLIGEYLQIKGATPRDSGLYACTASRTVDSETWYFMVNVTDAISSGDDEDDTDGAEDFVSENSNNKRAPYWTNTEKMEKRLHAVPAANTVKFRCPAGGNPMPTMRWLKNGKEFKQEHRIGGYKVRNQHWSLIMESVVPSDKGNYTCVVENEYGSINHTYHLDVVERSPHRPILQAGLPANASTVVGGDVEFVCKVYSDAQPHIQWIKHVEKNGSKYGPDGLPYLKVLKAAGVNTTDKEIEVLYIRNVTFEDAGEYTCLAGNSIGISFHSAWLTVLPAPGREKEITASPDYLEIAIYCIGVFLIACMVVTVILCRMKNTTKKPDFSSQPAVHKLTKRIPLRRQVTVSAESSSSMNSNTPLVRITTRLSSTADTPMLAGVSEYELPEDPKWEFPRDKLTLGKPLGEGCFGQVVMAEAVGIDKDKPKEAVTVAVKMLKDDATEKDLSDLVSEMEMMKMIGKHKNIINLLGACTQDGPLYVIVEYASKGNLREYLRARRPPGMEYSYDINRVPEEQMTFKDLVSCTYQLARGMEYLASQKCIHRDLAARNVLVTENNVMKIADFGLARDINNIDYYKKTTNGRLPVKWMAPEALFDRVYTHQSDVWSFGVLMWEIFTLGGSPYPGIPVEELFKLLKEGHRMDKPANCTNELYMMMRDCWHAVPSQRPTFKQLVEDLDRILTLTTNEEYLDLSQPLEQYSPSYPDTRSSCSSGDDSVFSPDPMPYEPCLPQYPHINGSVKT
With `C=CC(=O)N1C[C@@H](n2nc(C#Cc3ccc4c(ncn4CC)c3F)c(C(N)=O)c2NC)C[C@@H]1COC` [Example 68, 1-((3S,5R)-1-Acryloyl-5-(methoxymethyl)pyrrolidin-3-yl)-3-((1-ethyl-4-fluoro-1H-benzo[d]imidazol-5-yl)ethynyl)-5-(methylamino)-1H-pyrazole-4-carboxamide], the IC50 was not above 0.1 µM.

Turning to `C=CC(=O)N1C[C@@H](n2nc(C#Cc3ccc4nc(C)cnc4c3)c(C(N)=O)c2NC)C[C@@H]1COC` [Example 69, 1-((3S,5R)-1-Acryloyl-5-(methoxymethyl)pyrrolidin-3-yl)-5-(methylamino)-3-((2-methylquinoxalin-6-yl)ethynyl)-1H-pyrazole-4-carboxamide], the IC50 is not above 0.1 µM.

`C=CC(=O)N1C[C@@H](n2nc(C#Cc3ccc4c(c3)ncn4C(F)F)c(C(N)=O)c2NC)C[C@@H]1COC` [Example 70, 3-[2-[1-(Difluoromethyl)-1,3-benzodiazol-5-yl]ethynyl]-1-[(3S,5R)-5-(methoxymethyl)-1-(prop-2-enoyl)pyrrolidin-3-yl]-5-(methylamino)pyrazole-4-carboxamide]: the IC50 was not above 0.1 µM.

`C=CC(=O)N1C[C@@H](n2nc(C#Cc3ccc4c(ncn4C)c3F)c(C(N)=O)c2NC)C[C@@H]1COC` [Example 71, 1-((3S,5R)-1-Acryloyl-5-(methoxymethyl)pyrrolidin-3-yl)-3-((4-fluoro-1-methyl-1H-benzo[d]imidazol-5-yl)ethynyl)-5-(methylamino)-1H-pyrazole-4-carboxamide]: the IC50 is not above 0.1 µM.

Take `C=CC(=O)N1C[C@@H](n2nc(C#Cc3ccc4ncc(C)nc4c3)c(C(N)=O)c2NC)C[C@@H]1COC` [Example 72, 1-((3S,5R)-1-Acryloyl-5-(methoxymethyl)pyrrolidin-3-yl)-5-(methylamino)-3-((3-methylquinoxalin-6-yl)ethynyl)-1H-pyrazole-4-carboxamide]: the IC50 was not above 0.1 µM.

With `C=CC(=O)N1C[C@@H](n2nc(C#Cc3ccc4ncn(C(F)F)c4c3)c(C(N)=O)c2NC)C[C@@H]1COC` [Example 73, 3-[2-[3-(Difluoromethyl)-1,3-benzodiazol-5-yl]ethynyl]-1-[(3S,5R)-5-(methoxymethyl)-1-(prop-2-enoyl)pyrrolidin-3-yl]-5-(methylamino)pyrazole-4-carboxamide], the IC50 was not above 0.1 µM.

In the case of `C=CC(=O)N1C[C@@H](n2nc(C#Cc3ccc4c(C)ccnc4c3)c(C(N)=O)c2NC)C[C@@H]1COC` [Example 74, 1-[(3S,5R)-5-(Methoxymethyl)-1-(prop-2-enoyl)pyrrolidin-3-yl]-5-(methylamino)-3-[2-(4-methylquinolin-7-yl)ethynyl]pyrazole-4-carboxamide], the IC50 was not above 0.1 µM.

As to `C=CC(=O)N1C[C@@H](n2nc(C#Cc3ccn4c(C)cnc4c3)c(C(N)=O)c2NC)C[C@@H]1COC` [Example 75, 1-[(3S,5R)-5-(Methoxymethyl)-1-(prop-2-enoyl)pyrrolidin-3-yl]-5-(methylamino)-3-(2-[3-methylimidazo[1,2-a]pyridin-7-yl]ethynyl)pyrazole-4-carboxamide], the IC50 was not above 0.1 µM.

For `C=CC(=O)N1C[C@@H](n2nc(C#Cc3cc4c(cc3F)ncn4C(F)F)c(C(N)=O)c2NC)C[C@@H]1COC` [Example 76, 3-[2-[3-(Difluoromethyl)-6-fluoro-1,3-benzodiazol-5-yl]ethynyl]-1-[(3S,5R)-5-(methoxymethyl)-1-(prop-2-enoyl)pyrrolidin-3-yl]-5-(methylamino)pyrazole-4-carboxamide], the IC50 was not above 0.1 µM.

Consider `C=CC(=O)N1C[C@@H](n2nc(C#Cc3cc4ncn(C(F)F)c4cc3F)c(C(N)=O)c2NC)C[C@@H]1COC` [Example 77, 3-[2-[1-(Difluoromethyl)-6-fluoro-1,3-benzodiazol-5-yl]ethynyl]-1-[(3S,5R)-5-(methoxymethyl)-1-(prop-2-enoyl)pyrrolidin-3-yl]-5-(methylamino)pyrazole-4-carboxamide], for which the IC50 was not above 0.1 µM.

Regarding `C=CC(=O)N1C[C@@H](n2nc(C#Cc3cc4ncn(C)c4cc3F)c(C(N)=O)c2NC)C[C@@H]1COC(F)(F)F` [Example 79, 3-[2-(6-Fluoro-1-methyl-1,3-benzodiazol-5-yl)ethynyl]-5-(methylamino)-1-[(3S,5R)-1-(prop-2-enoyl)-5-[(trifluoromethoxy)methyl]pyrrolidin-3-y]pyrazole-4-carboxamide], the IC50 was not above 0.1 µM.

As for `C=CC(=O)N1C[C@@H](n2nc(C#Cc3cc4ncn(CC)c4cc3F)c(C(N)=O)c2NC)C[C@@H]1COC(F)(F)F` [Example 80, 3-[2-(1-Ethyl-6-fluoro-1,3-benzodiazol-5-yl)ethynyl]-5-(methylamino)-1-[(3S,5R)-1-(prop-2-enoyl)-5-[(trifluoromethoxy)methyl]pyrrolidin-3-yl]pyrazole-4-carboxamide], the IC50 is not above 0.1 µM.

Take `C=CC(=O)N1C[C@@H](n2nc(C#Cc3cc4ncn(C(F)F)c4cc3F)c(C(N)=O)c2NC)C[C@@H]1COC(F)(F)F` [Example 81, 3-[2-[1-(Difluoromethyl)-6-fluoro-1,3-benzodiazol-5-yl]ethynyl]-5-(methylamino)-1-[(3S,5R)-1-(prop-2-enoyl)-5-[(trifluoromethoxy)methyl]pyrrolidin-3-yl]pyrazole-4-carboxamide]: the IC50 was not above 0.1 µM.

`C=CC(=O)N1C[C@@H](n2nc(C#Cc3cc4nc(C)n(C)c4cc3Cl)c(C(N)=O)c2NC)C[C@@H]1COC` [Example 82, 3-[2-(6-Chloro-1,2-dimethyl-1,3-benzodiazol-5-yl)ethynyl]-1-[(3S,5R)-5-(methoxymethyl)-1-(prop-2-enoyl)pyrrolidin-3-yl]-5-(methylamino)pyrazole-4-carboxamide]: the IC50 was not above 0.1 µM.

For the compound `C=CC(=O)N1C[C@@H](n2nc(C#Cc3ccc4ccc(C)nc4c3)c(C(N)=O)c2NC)C[C@@H]1COC` [Example 83, 1-[(3S,5R)-5-(Methoxymethyl)-1-(prop-2-enoyl)pyrrolidin-3-yl]-5-(methylamino)-3-[2-(2-methylquinolin-7-yl)ethynyl]pyrazole-4-carboxamide], the IC50 is not above 0.1 µM.

In the case of `C=CC(=O)N1C[C@@H](n2nc(C#Cc3c(F)cc4c(ncn4C)c3F)c(C(N)=O)c2NC)C[C@@H]1COC(F)(F)F` [Example 84], the IC50 is not above 0.1 µM.

As to `C=CC(=O)N1C[C@@H](n2nc(C#Cc3c(F)cc4c(ncn4CC)c3F)c(C(N)=O)c2NC)C[C@@H]1COC(F)(F)F` [Example 85, 3-[2-(1-Ethyl-4,6-difluoro-1,3-benzodiazol-5-yl)ethynyl]-5-(methylamino)-1-[(3S,5R)-1-(prop-2-enoyl)-5-[(trifluoromethoxy)methyl]pyrrolidin-3-yl]pyrazole-4-carboxamide], the IC50 is not above 0.1 µM.

With `C=CC(=O)N1C[C@@H](n2nc(C#Cc3cc4nc[nH]c4cc3F)c(C(N)=O)c2NC)C[C@@H]1COC(F)(F)F` [Example 86, 3-[2-(6-Fluoro-1H-1,3-benzodiazol-5-yl)ethynyl]-5-(methylamino)-1-[(3S,5R)-1-(prop-2-enoyl)-5-[(trifluoromethoxy)methyl]pyrrolidin-3-yl]pyrazole-4-carboxamide], the IC50 is not above 0.1 µM.

For the compound `C=CC(=O)N1C[C@@H](n2nc(C#Cc3cc4nc(C)[nH]c4cc3Cl)c(C(N)=O)c2NC)C[C@@H]1COC(F)(F)F` [Example 87, 3-[2-(6-Chloro-2-methyl-1H-1,3-benzodiazol-5-yl)ethynyl]-5-(methylamino)-1-[(3S,5R)-1-(prop-2-enoyl)-5-[(trifluoromethoxy)methyl]pyrrolidin-3-yl]pyrazole-4-carboxamide], the IC50 is not above 0.1 µM.

By IC50 is commonly meant the concentration at which inhibition is half-maximal.
